Data from EP1397353B1, “2-(2,6-DISUBSTITUTED PHENYL)-4-ARYL-5-ALKYL-1,3-OXAZOLINE COMPOUNDS USEFUL AS INSECTICIDES AND ACARICIDES” (Dow AgroSciences LLC, priority 2001, dated 2003).

Experiments:
Assay type in all cases: in vivo
[1] = tested on: two-spotted spider mite (Tetranychus urticae); assay: Insecticidal test for two-spotted spider mite, ovicide method; conditions: for pest or weed control: Tetranychus urticae, read-out: SM, activity against two-spotted spider mite
Method: Insecticidal test for two-spotted spider mite (Tetranychus urticae)
Ten adult female two-spotted spider mites were placed on eight 2.2 cm leaf discs of cotton leaf, allowed to oviposit over 24 hours, and thereafter removed. […] Discs were placed on an agar substrate and held at 24 °C and 90% RH for 6 days.

[2] = tested on: cabbage looper (Trichoplusia ni); assay: Insecticidal test for cabbage looper (leaf-dip, cabbage leaf discs); conditions: dipped cabbage leaf discs, 2nd instar larvae, 5 days, rating of % Control; for pest or weed control at 400 ppm: Trichoplusia ni, foliar, 120 h, read-out: CL, activity at 400 ppm against cabbage looper
Method: (§1) Insecticidal test for tobacco budworm (Heliothis virescens), beet armyworm (Spodoptera exigua), and cabbage looper (Trichoplusia ni).
(§2) To prepare test solution, the test compound was formulated at 400 ppm in 7.5 mL of 2 acetone: 1 tap water. 250 µL of the test solution was pipetted upon the surface of 8 mL of lepidopteran diet (modified Shorey) contained in each of five one-ounce plastic cups (one cup = 1 replication). […] After airdrying, the treated leaf discs were placed individually into one-ounce plastic cups. Each dried, treated cotton cotyledon disc was infested with a 2nd instar tobacco budworm larva, and each cabbage leaf disc was infested with a 2nd instar cabbage looper larva. Cups containing the treated substrates and larvae were capped and then held in a growth chamber at 25 °C, 50-55% RH, and 14 hr light: 10 hr dark for 5 days.

[3] = tested on: tobacco budworm (Heliothis virescens); assay: Insecticidal test for tobacco budworm (leaf-dip, cotton cotyledon discs); conditions: dipped cotton cotyledon discs, 2nd instar larvae, 5 days, rating of % Control; for pest or weed control at 400 ppm: Heliothis virescens, 120 h, read-out: TBW, activity at 400 ppm against tobacco budworm
Method: as §1, §2

[4] = tested on: beet armyworm (Spodoptera exigua); assay: Insecticidal test for beet armyworm (treated lepidopteran diet); conditions: 2nd instar larvae, 5 days, rating of % Control; for pest or weed control at 400 ppm: Spodoptera exigua, 120 h, read-out: BAW, activity at 400 ppm against beet armyworm
Method: as §1, §2

[5] = foliar, 144 h, ovicide method, cotton leaf discs, 6 days, rating of % Control

Compound	pest or weed control at 400 ppm [2] [%]	pest or weed control at 400 ppm [3] [%]	pest or weed control at 400 ppm [4] [%]	also measured
(4R,5R)- and (4S,5S)-4-(4-bromophenyl)-2-(2-chloro-6-fluorophenyl)-5-methyl-4,5-dihydro-1,3-oxazole [Compound 23]				SM, activity at 2.5 ppm against two-spotted spider mite ([1]; ovicide method, cotton leaf discs, 6 days, rating of % Control): A (90-100); CL, activity at 400 ppm against cabbage looper [2]: F (less than 50); TBW, activity at 400 ppm against tobacco budworm [3]: B (80-89)
C[C@@H]1OC(c2c(F)cccc2F)=N[C@H]1c1ccc(-c2ccc3c(c2)OC(F)(F)O3)cc1 (mixture of isomers) [Compound 34, (4S,5S)- and (4R,5R)-4-[4-(2,2-difluoro-1,3-benzodioxol-5-yl)phenyl]-2-(2,6-difluorophenyl)-5-methyl-4,5-dihydro-1,3-oxazole]	90 to 100	< 50		
C[C@@H]1OC(c2c(F)cccc2F)=N[C@@H]1c1ccc(-c2ccc(C(F)(F)F)cc2F)cc1 (mixture of isomers) [Compound 16, (4R,5S)- and (4S,5R)-2-(2,6-difluorophenyl)-4-[2'-fluoro-4'-(trifluoromethyl)-1,1'-biphenyl-4-yl]-5-methyl-4,5-dihydro-1,3-oxazole]	90 to 100	90 to 100	90 to 100	
C[C@@H]1OC(c2c(F)cccc2F)=N[C@H]1c1ccc(-c2ccc(Cl)cc2)cc1 (mixture of isomers) [Compound 37, (4S,5S)- and (4R,5R)-4-(4'-chloro-1,1'-biphenyl-4-yl)-2-(2,6-difluorophenyl)-5-methyl-4,5-dihydro-1,3-oxazole]	90 to 100	90 to 100	90 to 100	
C[C@@H]1OC(c2c(F)cccc2F)=N[C@@H]1c1ccc(-c2ccc3c(c2)OC(F)(F)O3)cc1 (mixture of isomers) [Compound 13, (4R,5S)- and (4S,5R)-4-[4-(2,2-difluoro-1,3-benzodioxol-5-yl)phenyl]-2-(2,6-difluorophenyl)-5-methyl-4,5-dihydro-1,3-oxazole]	90 to 100	< 50		
Cc1ccc(-c2ccc([C@@H]3N=C(c4c(F)cccc4F)O[C@@H]3C)cc2)cc1 (mixture of isomers) [Compound 9, (4S,5R)- and (4R,5S)-2-(2,6-difluorophenyl)-5-methyl-4-(4'-methyl-1,1'-biphenyl-4-yl)-4,5-dihydro-1,3-oxazole]	90 to 100	< 50	90 to 100	
CCOc1ccc(-c2ccc([C@H]3N=C(c4c(F)cccc4F)O[C@H]3C)cc2)cc1 (racemic) [Compound 12, (4R,5S)- and (4S,5R)-2-(2,6-difluorophenyl)-4-(4'-ethoxy-1,1'-bphenyl-4-yl)-5-methyl-4,5-dihydro-1,3-oxazole]				BAW, activity at 400 ppm against beet armyworm [4]: A (90-100); CL, activity at 400 ppm against cabbage looper [2]: A (90-100); TBW, activity at 400 ppm against tobacco budworm [3]: B (80-89)
C[C@@H]1OC(c2c(F)cccc2F)=N[C@H]1c1ccc(-c2ccc(OC(F)(F)F)cc2)cc1 [Compound 47]				SM, activity at 2.5 ppm against two-spotted spider mite ([1]; foliar, 144 h): A (90-100); BAW, activity at 400 ppm against beet armyworm [4]: A (90-100); CL, activity at 400 ppm against cabbage looper [2]: A (90-100)
C[C@@H]1OC(c2c(F)cccc2F)=N[C@H]1c1ccc(-c2ccccc2F)cc1 (mixture of isomers) [Compound 31, (4S,5S)- and (4R,5R)-2-(2,6-difluorophenyl)-4-(2'-fluoro-1,1'-biphenyl-4-yl)-5-methyl-4,5-dihydro-1,3-oxazole]	90 to 100	< 50	< 50	pest or weed control [1, 5]: 90 to 100%
Cc1ccc(-c2ccc([C@@H]3N=C(c4c(F)cccc4F)O[C@H]3C)cc2)cc1 (mixture of isomers) [Compound 36, (4S,5S)- and (4R,5R)-2-(2,6-difluorophenyl)-5-methyl-4-(4'-methyl-1,1'-biphenyl-4-yl)-4,5-dihydro-1,3-oxazole]	90 to 100	< 50	< 50	
C[C@@H]1OC(c2c(F)cccc2F)=N[C@H]1c1ccc(-c2ccc(C(F)(F)F)cc2)cc1 (mixture of isomers) [Compound 26, (4S,5S)- and (4R,5R)-2-(2,6-difluorophenyl)-5-methyl-4-[4'-(trifluoromethyl)-1,1'-biphenyl-4-yl]-4,5-dihydro-1,3-oxazole]	90 to 100	90 to 100	90 to 100	pest or weed control [1, 5]: 90 to 100%
C[C@@H]1OC(c2c(F)cccc2F)=N[C@H]1c1ccc(-c2cccc(C(F)(F)F)c2)cc1 (mixture of isomers) [Compound 28, (4S,5S)- and (4R,5R)-2-(2,6-difluorophenyl)-5-methyl-4-[3'-(trifluoromethyl)-1,1'-biphenyl-4-yl]-4,5-dihydro-1,3-oxazole]	90 to 100	90 to 100	90 to 100	pest or weed control [1, 5]: 90 to 100%
CCOc1ccc(-c2ccc([C@@H]3N=C(c4c(F)cccc4F)O[C@H]3C)cc2)cc1 (mixture of isomers) [Compound 33, (4S,5S)- and (4R,5R)-2-(2,6-difluorophenyl)-4-(4'-ethoxy-1,1'-biphenyl-4-yl)-5-methyl-4,5-dihydro-1,3-oxazole]	90 to 100	80 to 89	90 to 100	pest or weed control [1, 5]: 80 to 89%
Cc1ccc(-c2ccc([C@@H]3N=C(c4c(F)cccc4F)O[C@H]3C)cc2)cc1C (mixture of isomers) [Compound 29, (4S,5S)- and (4R,5R)-2-(2,6-difluorophenyl)-4-(3',4'-dimethyl-1,1'-biphenyl-4-yl)-5-methyl-4,5-dihydro-1,3-oxazole]	90 to 100	< 50	60 to 69	
C[C@H]1OC(c2c(F)cccc2F)=N[C@H]1c1ccc(-c2ccc(Cl)cc2)cc1 (mixture of isomers) [Compound 10, (4S,5R)- and (4R,5S)-4-(4'-chloro-1,1'-biphenyl-4-yl)-2-(2,6-difluorophenyl)-5-methyl-4,5-dihydro-1,3-oxazole]	90 to 100	90 to 100	90 to 100	
Cc1cc(Br)ccc1[C@@H]1N=C(c2c(F)cccc2F)O[C@H]1C (mixture of isomers) [Compound 42, (4S,5S)- and (4R,5R)-4-(4-bromo-2-methylphenyl)-2-(2,6-difluorophenyl)-5-methyl-4,5dihydro-1,3-oxazole]		< 50		
CCOc1ccc(-c2ccc([C@H]3N=C(c4c(F)cccc4F)O[C@H]3C)c(C)c2)cc1 (mixture of isomers) [Compound 41, (4R,5S)- and (4S,5R)-2-(2,6-difluorophenyl)-4-(4'-ethoxy-3-methyl-1,1'-biphenyl-4-yl)-5-methyl-4,5-dihydro-1,3-oxazole]	90 to 100	90 to 100	90 to 100	pest or weed control [1, 5]: 60 to 69%
C[C@H]1OC(c2c(F)cccc2F)=N[C@H]1c1ccc(-c2cccc(C(F)(F)F)c2)cc1 (mixture of isomers) [Compound 11, (4S,5R)- and (4R,5S)-2-(2,6-difluorophenyl)-5-methyl-4-[3'-(trifluoromethyl)-1,1'-biphenyl-4-yl]-4,5-dihydro-1,3-oxazole]	90 to 100	80 to 89	90 to 100	
(4R,5R)- and (4S,5S)-4-phenyl-2-(2,6-difluorophenyl)-5-methyl-4,5-dihydro-1,3-oxazole [Compound 35]				CL, activity at 400 ppm against cabbage looper [2]: F (less than 50); TBW, activity at 400 ppm against tobacco budworm [3]: F (less than 50)
C[C@@H]1OC(c2c(F)cccc2F)=N[C@@H]1c1ccc(-c2ccccc2F)cc1 (racemic) [Compound 15, (4R,5S)- and (4S,5R)-2-(2,6-difluorophenyl)-4-2'-fluoro-1,1'-biphenyl-4-yl)-5-methyl-4,5-dihydro-1,3-oxazole]				CL, activity at 400 ppm against cabbage looper [2]: A (90-100)
C[C@@H]1OC(c2c(F)cccc2F)=N[C@@H]1c1ccc(-c2ccc(C(F)(F)F)cc2)cc1 (racemic) [Compound 5, (4R,5S)- and 4S,5R)-2-(2,6-difluorophenyl)-5-methyl-4-(4'-(trifluoromethyl)-1,1'-biphenyl-4-yl]-4,5-dihvdro-1,3-oxazole]				SM, activity at 2.5 ppm against two-spotted spider mite ([1]; foliar, 144 h): A (90-100); BAW, activity at 400 ppm against beet armyworm [4]: A (90-100); CL, activity at 400 ppm against cabbage looper [2]: A (90-100)
